For 8 molecules, mutagenic call results are on record in PubChem BioAssay AID1259407 (Chemical Carcinogenesis Research Information System (CCRIS), 2018).

The source made the active and inactive calls. No rule for the calls is given here.

The data set relates to CCRIS mutagenicity, Ames/micronucleus/aberration tests. Description: CCRIS mutagenicity studies.
The mark [1] stands for this setting: Test System: AMES SALMONELLA TYPHIMURIUM, Strain/Indicator: TA98, Metabolic Activation: HAMSTER, LIVER, S-9, AROCLOR 1254 (10%), Method: STANDARD PLATE.
Where [2] appears, read: Test System: AMES SALMONELLA TYPHIMURIUM, Strain/Indicator: TA98, Metabolic Activation: NONE, Method: STANDARD PLATE.
Setting [3] is: Test System: AMES SALMONELLA TYPHIMURIUM, Strain/Indicator: TA98, Metabolic Activation: RAT, LIVER, S-9, AROCLOR 1254 (10%), Method: STANDARD PLATE.
[4] abbreviates: Test System: AMES SALMONELLA TYPHIMURIUM, Strain/Indicator: TA100, Metabolic Activation: HAMSTER, LIVER, S-9, AROCLOR 1254 (10%), Method: STANDARD PLATE.
Where [5] appears, read: Test System: AMES SALMONELLA TYPHIMURIUM, Strain/Indicator: TA100, Metabolic Activation: NONE, Method: STANDARD PLATE.
Where [6] appears, read: Test System: AMES SALMONELLA TYPHIMURIUM, Strain/Indicator: TA100, Metabolic Activation: RAT, LIVER, S-9, AROCLOR 1254 (10%), Method: STANDARD PLATE.
Where [7] appears, read: Test System: AMES SALMONELLA TYPHIMURIUM, Strain/Indicator: TA1537, Metabolic Activation: HAMSTER, LIVER, S-9, AROCLOR 1254 (10%), Method: STANDARD PLATE.
Where [8] appears, read: Test System: AMES SALMONELLA TYPHIMURIUM, Strain/Indicator: TA1537, Metabolic Activation: NONE, Method: STANDARD PLATE.
[9] abbreviates: Test System: AMES SALMONELLA TYPHIMURIUM, Strain/Indicator: TA1537, Metabolic Activation: RAT, LIVER, S-9, AROCLOR 1254 (10%), Method: STANDARD PLATE.
[10] abbreviates: Test System: AMES SALMONELLA TYPHIMURIUM, Strain/Indicator: TA1538, Metabolic Activation: HAMSTER, LIVER, S-9, AROCLOR 1254 (10%), Method: STANDARD PLATE.
Where [11] appears, read: Test System: AMES SALMONELLA TYPHIMURIUM, Strain/Indicator: TA1538, Metabolic Activation: NONE, Method: STANDARD PLATE.
The mark [12] stands for this setting: Test System: AMES SALMONELLA TYPHIMURIUM, Strain/Indicator: TA1538, Metabolic Activation: RAT, LIVER, S-9, AROCLOR 1254 (10%), Method: STANDARD PLATE.
Where [13] appears, read: Test System: MOUSE LYMPHOMA, Strain/Indicator: L5178Y (TK+/TK-), Metabolic Activation: NONE, Method: SUSPENSION/PLATE.
Setting [14] is: Test System: MOUSE LYMPHOMA, Strain/Indicator: L5178Y (TK+/TK-), Metabolic Activation: RAT, LIVER, S-9, AROCLOR 1254, Method: SUSPENSION/PLATE.
Setting [15] is: Test System: AMES SALMONELLA TYPHIMURIUM, Strain/Indicator: TA98, Metabolic Activation: NONE, Method: PREINCUBATION
Setting [16] is: Test System: AMES SALMONELLA TYPHIMURIUM, Strain/Indicator: TA100, Metabolic Activation: NONE, Method: PREINCUBATION
Where [17] appears, read: Test System: AMES SALMONELLA TYPHIMURIUM, Strain/Indicator: TA1535, Metabolic Activation: NONE, Method: PREINCUBATION
[18] abbreviates: Test System: AMES SALMONELLA TYPHIMURIUM, Strain/Indicator: TA1537, Metabolic Activation: NONE, Method: PREINCUBATION

Take `CCC1CCC(CCC(=O)[O-])C1.CCC1CCC(CCC(=O)[O-])C1.[Co+2]` (configuration not stated): the mutagenic call runs as follows: under setting [1], “inactive; negative”; under setting [2], “inactive; negative”; under setting [3], “active; positive”; under setting [4], “inactive; negative”; under setting [5], “inactive; negative”; under setting [6], “inactive; negative”. Moreover, the mutagenic call is “inactive; negative” under setting [7]; “inactive; negative” under setting [8]; “inactive; negative” under setting [9]; “inactive; negative” under setting [10]; “inactive; negative” under setting [11]; “active; positive” under setting [12]. The mutagenic call runs as follows: under setting [13], “inactive; negative. reevaluation of results: negative”; under setting [14], “inactive; negative. reevaluation of results: equivocal”.

On to `CCCCN(CC)c1c([N+](=O)[O-])cc(C(F)(F)F)cc1[N+](=O)[O-]`, for which the mutagenic call is, setting by setting: (End Point: In vitro Chromosomal aberration, Test System: CHO cells, Metabolic Activation: None) “inactive; negative”; (End Point: In vitro Chromosomal aberration, Test System: CHO cells, Metabolic Activation: Rodent, liver, S-9, Aroclor) “inactive; negative”.

Regarding `O=[N+]([O-])c1ccc2cccc3c2c1C=C3`, the mutagenic call under setting [2] was “active; positive”.

Regarding `CNC(=O)N(C)C(=O)NO`, the mutagenic call reads like this: under setting [2], “inactive; negative”; under setting [5], “inactive; negative”.

Regarding `CSc1cc(SC)c(N)c(C)c1N`, the mutagenic call (Test System: AMES SALMONELLA TYPHIMURIUM, Strain/Indicator: TA98, Metabolic Activation: RAT, LIVER, S-9, AROCLOR 1254, Method: STANDARD PLATE) was “active; positive”.

Turning to `O=S(=O)(c1ccc(O)cc1)c1ccc(O)cc1`, the mutagenic call is “inactive; negative” under setting [1]; “inactive; negative” under setting [15]; “inactive; negative” under setting [2]; “inactive; negative” (Test System: AMES SALMONELLA TYPHIMURIUM, Strain/Indicator: TA98, Metabolic Activation: RAT LIVER S-9, PHENOBARBITAL AND BETA-NAPHTHOFLAVONE, Method: PREINCUBATION); “inactive; negative” under setting [3]; “inactive; negative” under setting [4]. Besides, the mutagenic call is “inactive; negative” under setting [16]; “inactive; negative” under setting [5]; “inactive; negative” (Test System: AMES SALMONELLA TYPHIMURIUM, Strain/Indicator: TA100, Metabolic Activation: RAT LIVER S-9, PHENOBARBITAL AND BETA-NAPHTHOFLAVONE, Method: PREINCUBATION); “inactive; negative” under setting [6]; “inactive; negative” (Test System: AMES SALMONELLA TYPHIMURIUM, Strain/Indicator: TA1535, Metabolic Activation: HAMSTER, LIVER, S-9, AROCLOR 1254 (10%), Method: STANDARD PLATE); “inactive; negative” under setting [17]. Also, the mutagenic call is “inactive; negative” (Test System: AMES SALMONELLA TYPHIMURIUM, Strain/Indicator: TA1535, Metabolic Activation: NONE, Method: STANDARD PLATE); “inactive; negative” (Test System: AMES SALMONELLA TYPHIMURIUM, Strain/Indicator: TA1535, Metabolic Activation: RAT LIVER S-9, PHENOBARBITAL AND BETA-NAPHTHOFLAVONE, Method: PREINCUBATION); “inactive; negative” (Test System: AMES SALMONELLA TYPHIMURIUM, Strain/Indicator: TA1535, Metabolic Activation: RAT, LIVER, S-9, AROCLOR 1254 (10%), Method: STANDARD PLATE); “inactive; negative” under setting [7]; “inactive; negative” under setting [18]; “inactive; negative” under setting [8]. In addition, the mutagenic call was “inactive; negative” (Test System: AMES SALMONELLA TYPHIMURIUM, Strain/Indicator: TA1537, Metabolic Activation: RAT LIVER S-9, PHENOBARBITAL AND BETA-NAPHTHOFLAVONE, Method: PREINCUBATION); “inactive; negative” under setting [9]; “inactive; negative” under setting [10]; “inactive; negative” under setting [11]; “inactive; negative” under setting [12]; “inactive; negative” (Test System: E. COLI, Strain/Indicator: WP2UVRA, Metabolic Activation: NONE, Method: PREINCUBATION). For the same molecule, the mutagenic call by setting is: (Test System: E. COLI, Strain/Indicator: WP2UVRA, Metabolic Activation: RAT LIVER S-9, PHENOBARBITAL AND BETA-NAPHTHOFLAVONE, Method: PREINCUBATION) “inactive; negative”; under setting [13], “inactive; positive. reevaluation of results: negative”; under setting [14], “inactive; negative”.

For `N[C@H](Cc1ccccc1)C(=O)O`, the mutagenic call is “inactive; negative” (Test System: AMES SALMONELLA TYPHIMURIUM, Strain/Indicator: TA98, Metabolic Activation: HAMSTER, LIVER, S-9, AROCLOR 1254 (10%), Method: PREINCUBATION); “inactive; negative” under setting [15]; “inactive; negative” (Test System: AMES SALMONELLA TYPHIMURIUM, Strain/Indicator: TA98, Metabolic Activation: RAT, LIVER, S-9, AROCLOR 1254 (10%), Method: PREINCUBATION); “inactive; negative” (Test System: AMES SALMONELLA TYPHIMURIUM, Strain/Indicator: TA100, Metabolic Activation: HAMSTER, LIVER, S-9, AROCLOR 1254 (10%), Method: PREINCUBATION); “inactive; negative” under setting [16]; “inactive; negative” (Test System: AMES SALMONELLA TYPHIMURIUM, Strain/Indicator: TA100, Metabolic Activation: RAT, LIVER, S-9, AROCLOR 1254 (10%), Method: PREINCUBATION). Also, the mutagenic call is, setting by setting: (Test System: AMES SALMONELLA TYPHIMURIUM, Strain/Indicator: TA1535, Metabolic Activation: HAMSTER, LIVER, S-9, AROCLOR 1254 (10%), Method: PREINCUBATION) “inactive; negative”; under setting [17], “inactive; negative”; (Test System: AMES SALMONELLA TYPHIMURIUM, Strain/Indicator: TA1535, Metabolic Activation: RAT, LIVER, S-9, AROCLOR 1254 (10%), Method: PREINCUBATION) “inactive; negative”; (Test System: AMES SALMONELLA TYPHIMURIUM, Strain/Indicator: TA1537, Metabolic Activation: HAMSTER, LIVER, S-9, AROCLOR 1254 (10%), Method: PREINCUBATION) “inactive; negative”; under setting [18], “inactive; negative”; (Test System: AMES SALMONELLA TYPHIMURIUM, Strain/Indicator: TA1537, Metabolic Activation: RAT, LIVER, S-9, AROCLOR 1254 (10%), Method: PREINCUBATION) “inactive; negative”.

`CCCC(=O)OCc1cccc([N+](=O)[O-])c1`: the mutagenic call reads like this: under setting [15], “inactive; negative”; under setting [16], “inactive; negative”; (Test System: AMES SALMONELLA TYPHIMURIUM, Strain/Indicator: TA100, Metabolic Activation: RAT, LIVER, S-9, AROCLOR 1254, Method: PREINCUBATION) “inactive; negative”.
